{
  "source": "patent US10907181B2",
  "about": "“Biosynthetic pathways and products” (REGENTS OF THE UNIVERSITY OF MINNESOTA, priority 2013, dated 2021)",
  "key": {"[1]": {"experiment": "liquid-liquid solvent extraction at equal volume ratio, HPLC quantification", "settings": "not told"}, "[2]": {"experiment": "Extraction of anhydromevalonolactone with different organic solvents (extract efficiency and partition coefficient Kd, solvent/water)", "format": "physicochemical", "excerpt": "Purification of anhydromevalonolactone also was studied by extraction with different organic solvents (Table 1). Approximately 96% of the anhydromevalonolactone was extracted when chloroform was applied at a 1:1 volume ratio. […] NMR analysis indicated the anhydromevalonolactone was in the lactone form, instead of equilibrating with its hydroxyacid form (FIG. 6).\nThe fermentation broth from the bioreactor was harvested by centrifuge, and then was discolored by activated charcoal. The test tubes were filled with 5 mL fermentation broth and concentrated H3PO4 or H2SO4, then autoclaved for one hour to make anhydromevalonate, and then the concentrations of mevalonate and anhydromevalonate were measured by HPLC. Immiscible organic solvents were used to extraction anhydromevalonate from the reaction mixture."}, "[3]": {"experiment": "liquid-liquid solvent extraction at equal volume ratio", "settings": "not told"}},
  "data": [
    {"smiles": "CC1=CC(=O)OCC1", "note": "[Anhydromevalonolactone, anhydromevalonolactone]", "values": [
      {"measurement": "partition coefficient (Kd)", "setting": "[1]", "value": "24.89 concentration ratio (Kd)"},
      {"measurement": "Anhydromevalonolactone extract efficiency", "setting": "[2]; solvent Benzene", "value": 65.26, "unit": "%"},
      {"measurement": "Anhydromevalonolactone extract efficiency", "setting": "[2]; solvent CHC13 (chloroform), 1:1 volume ratio", "value": 96.14, "unit": "%"},
      {"measurement": "Anhydromevalonolactone extract efficiency", "setting": "[2]; solvent CHC13 (chloroform), 1:1 volume ratio, listed as anhydromevalonolactone", "value": "Approximately 96%"},
      {"measurement": "Anhydromevalonolactone extract efficiency", "setting": "[2]; solvent DIBK", "value": 44.15, "unit": "%"},
      {"measurement": "Anhydromevalonolactone extract efficiency", "setting": "[2]; solvent MIBK", "value": 79.90, "unit": "%"},
      {"measurement": "Anhydromevalonolactone extract efficiency", "setting": "[2]; solvent Oley", "value": 35.56, "unit": "%"},
      {"measurement": "Anhydromevalonolactone extract efficiency", "setting": "[2]; solvent ethyl acetate", "value": 79.67, "unit": "%"},
      {"measurement": "partition coefficient (Kd)", "setting": "[3]", "value": "25 concentration ratio (Kd)"}
    ]}
  ]
}
